Results taken from ChEMBL document CHEMBL4219148, “Discovery of a highly potent orally bioavailable imidazo-[1, 2-a]pyrazine Aurora inhibitor” (Bioorg Med Chem Lett, 2018).

Tests used:
[1] = target: Tyrosine-protein kinase JAK2 (Homo sapiens, UniProt O60674); test: Inhibition of JAK2 (unknown origin)
[2] = target: T1, Calcium/calmodulin-dependent protein kinase type IV (Homo sapiens, UniProt Q16566); test: Inhibition of CAMK4 (unknown origin)
T1 sequence (Q16566 whole entry): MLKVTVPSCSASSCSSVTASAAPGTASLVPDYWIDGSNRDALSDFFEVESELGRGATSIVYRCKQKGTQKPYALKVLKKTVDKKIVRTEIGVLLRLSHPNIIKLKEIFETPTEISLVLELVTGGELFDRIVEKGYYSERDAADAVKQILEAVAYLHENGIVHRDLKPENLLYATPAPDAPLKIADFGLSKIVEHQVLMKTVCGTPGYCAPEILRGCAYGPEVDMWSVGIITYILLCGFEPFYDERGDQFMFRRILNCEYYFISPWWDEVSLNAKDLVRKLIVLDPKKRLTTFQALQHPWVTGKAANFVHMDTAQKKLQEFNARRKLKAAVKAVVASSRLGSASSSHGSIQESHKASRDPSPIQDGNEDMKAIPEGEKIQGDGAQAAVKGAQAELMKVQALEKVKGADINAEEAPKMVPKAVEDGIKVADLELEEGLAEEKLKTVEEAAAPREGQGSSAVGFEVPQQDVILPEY

[3] = target: T2, Aurora kinase B (Homo sapiens, UniProt Q96GD4); test: Inhibition of Aurora B (unknown origin) using Tamra-PKAtide as substrate by fluorescence polarization assay
T2 sequence (Q96GD4 whole entry): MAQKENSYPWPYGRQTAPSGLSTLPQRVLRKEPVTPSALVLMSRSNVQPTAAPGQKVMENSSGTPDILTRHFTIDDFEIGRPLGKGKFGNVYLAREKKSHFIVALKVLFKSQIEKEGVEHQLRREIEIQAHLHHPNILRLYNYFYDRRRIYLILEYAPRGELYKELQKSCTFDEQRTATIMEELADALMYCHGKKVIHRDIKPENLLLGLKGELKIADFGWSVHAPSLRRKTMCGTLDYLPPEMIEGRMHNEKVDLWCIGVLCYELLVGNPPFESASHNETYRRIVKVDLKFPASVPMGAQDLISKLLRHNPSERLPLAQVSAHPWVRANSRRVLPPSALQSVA

[4] = target: Serine/threonine-protein kinase PLK3 (Homo sapiens, UniProt Q9H4B4); test: Inhibition of PLK3 (unknown origin)
Sequence of Serine/threonine-protein kinase PLK3 (Q9H4B4 whole entry): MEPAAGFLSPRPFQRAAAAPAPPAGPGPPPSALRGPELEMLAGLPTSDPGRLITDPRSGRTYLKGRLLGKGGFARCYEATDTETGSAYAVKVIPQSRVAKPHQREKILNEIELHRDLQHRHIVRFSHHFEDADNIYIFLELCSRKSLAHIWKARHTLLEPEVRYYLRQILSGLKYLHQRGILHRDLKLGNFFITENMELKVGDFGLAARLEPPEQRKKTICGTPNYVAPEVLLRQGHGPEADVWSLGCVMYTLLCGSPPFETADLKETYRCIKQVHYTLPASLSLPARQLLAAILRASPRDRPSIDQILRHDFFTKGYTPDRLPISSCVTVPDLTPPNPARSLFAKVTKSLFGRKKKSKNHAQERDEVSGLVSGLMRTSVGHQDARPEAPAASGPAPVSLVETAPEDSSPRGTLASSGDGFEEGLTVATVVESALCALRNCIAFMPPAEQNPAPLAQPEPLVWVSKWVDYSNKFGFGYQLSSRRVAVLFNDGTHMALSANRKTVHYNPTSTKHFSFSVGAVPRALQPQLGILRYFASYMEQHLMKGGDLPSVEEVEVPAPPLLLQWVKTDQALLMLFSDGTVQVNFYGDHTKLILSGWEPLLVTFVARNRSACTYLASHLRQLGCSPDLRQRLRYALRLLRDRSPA

[5] = Apparent permeability from apical to basolateral side in human intestinal Caco2 cells; type: ADME, cell-based; conditions: Caco-2
[6] = target: T3, Receptor-type tyrosine-protein kinase FLT3 (Homo sapiens, UniProt P36888); test: Inhibition of FLT3 (unknown origin)
T3 sequence (P36888 whole entry): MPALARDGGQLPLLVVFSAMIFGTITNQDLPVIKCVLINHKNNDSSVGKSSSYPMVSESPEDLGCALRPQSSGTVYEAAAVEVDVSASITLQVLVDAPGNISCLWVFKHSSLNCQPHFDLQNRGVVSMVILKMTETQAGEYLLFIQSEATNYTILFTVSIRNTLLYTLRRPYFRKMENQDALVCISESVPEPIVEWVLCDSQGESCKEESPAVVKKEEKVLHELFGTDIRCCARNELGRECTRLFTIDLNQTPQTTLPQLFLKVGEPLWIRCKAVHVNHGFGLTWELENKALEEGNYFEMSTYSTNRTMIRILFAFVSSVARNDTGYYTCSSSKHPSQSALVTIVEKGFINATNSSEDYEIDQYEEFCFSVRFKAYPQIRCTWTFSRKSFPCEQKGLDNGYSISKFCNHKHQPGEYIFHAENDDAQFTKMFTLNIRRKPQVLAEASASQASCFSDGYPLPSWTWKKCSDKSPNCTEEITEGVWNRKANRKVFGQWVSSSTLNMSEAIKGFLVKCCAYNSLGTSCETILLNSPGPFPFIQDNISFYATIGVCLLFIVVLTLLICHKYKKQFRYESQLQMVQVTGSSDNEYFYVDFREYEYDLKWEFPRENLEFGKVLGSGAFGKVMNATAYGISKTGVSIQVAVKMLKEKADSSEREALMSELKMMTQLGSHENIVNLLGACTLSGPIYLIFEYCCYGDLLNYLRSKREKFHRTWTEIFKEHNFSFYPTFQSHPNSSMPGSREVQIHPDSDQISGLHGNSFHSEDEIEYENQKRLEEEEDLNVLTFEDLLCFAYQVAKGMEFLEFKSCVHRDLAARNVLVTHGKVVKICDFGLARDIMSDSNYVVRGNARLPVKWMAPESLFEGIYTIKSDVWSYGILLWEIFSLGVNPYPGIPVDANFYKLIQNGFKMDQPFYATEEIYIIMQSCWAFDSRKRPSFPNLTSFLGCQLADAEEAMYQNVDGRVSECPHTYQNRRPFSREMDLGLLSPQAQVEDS

[7] = target: Hepatocyte growth factor receptor (Homo sapiens, UniProt P08581); test: Inhibition of MET (unknown origin)
[8] = target: RAC-alpha serine/threonine-protein kinase (Homo sapiens, UniProt P31749); test: Inhibition of AKT1 (unknown origin)
Sequence of RAC-alpha serine/threonine-protein kinase (P31749 whole entry): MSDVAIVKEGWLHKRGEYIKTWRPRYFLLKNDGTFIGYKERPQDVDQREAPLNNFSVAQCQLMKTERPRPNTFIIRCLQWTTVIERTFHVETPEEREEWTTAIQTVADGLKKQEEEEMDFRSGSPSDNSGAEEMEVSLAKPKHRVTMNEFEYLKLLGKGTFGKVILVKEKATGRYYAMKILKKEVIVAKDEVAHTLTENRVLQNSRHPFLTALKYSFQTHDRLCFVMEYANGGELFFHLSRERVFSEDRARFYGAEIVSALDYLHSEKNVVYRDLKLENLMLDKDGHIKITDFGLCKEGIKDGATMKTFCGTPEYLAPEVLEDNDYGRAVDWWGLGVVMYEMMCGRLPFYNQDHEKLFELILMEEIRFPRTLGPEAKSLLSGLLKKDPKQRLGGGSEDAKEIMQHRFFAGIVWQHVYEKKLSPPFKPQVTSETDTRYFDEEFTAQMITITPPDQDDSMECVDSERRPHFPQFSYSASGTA

[9] = target: T4, Serine/threonine-protein kinase Chk1 (Homo sapiens, UniProt O14757); test: Inhibition of CHK1 (unknown origin)
T4 sequence (O14757 whole entry): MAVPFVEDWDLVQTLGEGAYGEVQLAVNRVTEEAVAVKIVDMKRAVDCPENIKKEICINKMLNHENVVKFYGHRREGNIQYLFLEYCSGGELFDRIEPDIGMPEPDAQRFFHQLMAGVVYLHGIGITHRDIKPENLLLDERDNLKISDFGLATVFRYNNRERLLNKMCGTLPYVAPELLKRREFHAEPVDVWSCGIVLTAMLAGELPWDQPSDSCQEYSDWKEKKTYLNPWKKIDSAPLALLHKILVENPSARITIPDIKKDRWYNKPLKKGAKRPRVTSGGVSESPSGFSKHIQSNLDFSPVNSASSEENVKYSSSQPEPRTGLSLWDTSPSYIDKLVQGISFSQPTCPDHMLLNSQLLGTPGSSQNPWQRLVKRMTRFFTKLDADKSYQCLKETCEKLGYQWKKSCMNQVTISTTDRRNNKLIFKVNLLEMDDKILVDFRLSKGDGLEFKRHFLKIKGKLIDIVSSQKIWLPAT

[10] = target: Casein kinase I isoform delta (Homo sapiens, UniProt P48730); test: Inhibition of CSNK1D (unknown origin)
Sequence of Casein kinase I isoform delta (P48730 whole entry, canonical isoform): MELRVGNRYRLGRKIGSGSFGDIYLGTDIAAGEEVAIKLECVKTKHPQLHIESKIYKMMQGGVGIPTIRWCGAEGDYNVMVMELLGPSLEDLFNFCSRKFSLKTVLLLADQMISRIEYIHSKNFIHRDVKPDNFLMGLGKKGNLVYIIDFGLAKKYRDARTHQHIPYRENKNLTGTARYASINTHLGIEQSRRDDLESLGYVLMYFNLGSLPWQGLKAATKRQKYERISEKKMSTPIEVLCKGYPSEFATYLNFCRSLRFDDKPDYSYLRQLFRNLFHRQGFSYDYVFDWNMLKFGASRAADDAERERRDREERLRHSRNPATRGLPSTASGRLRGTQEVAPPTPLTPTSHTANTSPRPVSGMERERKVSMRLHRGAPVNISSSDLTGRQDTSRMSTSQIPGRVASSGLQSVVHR

[11] = target: Insulin-like growth factor 1 receptor (Homo sapiens, UniProt P08069); test: Inhibition of IGF1R (unknown origin)
Sequence of Insulin-like growth factor 1 receptor (P08069 31-736 limits assumed): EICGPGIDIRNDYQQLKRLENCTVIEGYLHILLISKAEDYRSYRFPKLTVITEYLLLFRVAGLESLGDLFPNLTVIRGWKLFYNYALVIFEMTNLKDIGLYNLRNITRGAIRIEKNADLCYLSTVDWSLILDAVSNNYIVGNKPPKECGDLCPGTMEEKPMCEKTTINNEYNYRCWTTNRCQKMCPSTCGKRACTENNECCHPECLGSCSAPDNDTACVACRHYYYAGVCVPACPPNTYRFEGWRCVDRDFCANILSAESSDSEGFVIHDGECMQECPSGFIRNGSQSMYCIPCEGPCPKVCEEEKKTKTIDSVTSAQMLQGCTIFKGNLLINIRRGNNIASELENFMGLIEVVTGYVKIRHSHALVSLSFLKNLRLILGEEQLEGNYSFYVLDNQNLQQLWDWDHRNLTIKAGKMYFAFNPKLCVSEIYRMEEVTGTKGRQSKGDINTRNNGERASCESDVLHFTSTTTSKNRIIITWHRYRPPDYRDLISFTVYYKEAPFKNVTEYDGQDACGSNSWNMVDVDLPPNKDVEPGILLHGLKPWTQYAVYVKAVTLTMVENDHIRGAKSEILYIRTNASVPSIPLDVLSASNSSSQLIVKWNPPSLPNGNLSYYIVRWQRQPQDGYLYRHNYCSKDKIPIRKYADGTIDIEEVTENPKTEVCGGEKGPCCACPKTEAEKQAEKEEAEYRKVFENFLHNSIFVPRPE
Sequence of Insulin-like growth factor 1 receptor (P08069 741-1367 limits assumed): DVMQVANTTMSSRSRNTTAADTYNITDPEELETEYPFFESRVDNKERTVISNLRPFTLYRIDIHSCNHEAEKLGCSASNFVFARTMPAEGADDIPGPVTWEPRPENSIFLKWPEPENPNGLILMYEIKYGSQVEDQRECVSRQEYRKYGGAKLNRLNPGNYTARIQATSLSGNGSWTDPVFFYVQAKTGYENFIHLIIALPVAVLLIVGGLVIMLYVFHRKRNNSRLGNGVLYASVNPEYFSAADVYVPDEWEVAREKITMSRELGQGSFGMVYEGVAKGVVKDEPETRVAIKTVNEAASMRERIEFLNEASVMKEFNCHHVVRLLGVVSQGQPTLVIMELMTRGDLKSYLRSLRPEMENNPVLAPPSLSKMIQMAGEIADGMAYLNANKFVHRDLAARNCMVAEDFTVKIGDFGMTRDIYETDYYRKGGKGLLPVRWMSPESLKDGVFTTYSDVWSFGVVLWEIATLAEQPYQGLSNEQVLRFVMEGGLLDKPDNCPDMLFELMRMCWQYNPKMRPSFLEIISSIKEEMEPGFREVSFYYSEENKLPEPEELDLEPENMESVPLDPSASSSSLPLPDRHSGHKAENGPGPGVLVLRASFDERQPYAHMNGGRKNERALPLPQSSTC

[12] = target: T2, Aurora kinase B; test: Inhibition of Aurora B in human HCT116 cells assessed as reduction in phosphorylation of Histone H3 at Ser10 residue incubated for 1 hr by Hoechst 33342 dye-based immunofluorescence microscopic method; type: cell-based
[13] = target: Tyrosine-protein kinase Lck (Homo sapiens, UniProt P06239); test: Inhibition of LCK (unknown origin)
Sequence of Tyrosine-protein kinase Lck (P06239 whole entry): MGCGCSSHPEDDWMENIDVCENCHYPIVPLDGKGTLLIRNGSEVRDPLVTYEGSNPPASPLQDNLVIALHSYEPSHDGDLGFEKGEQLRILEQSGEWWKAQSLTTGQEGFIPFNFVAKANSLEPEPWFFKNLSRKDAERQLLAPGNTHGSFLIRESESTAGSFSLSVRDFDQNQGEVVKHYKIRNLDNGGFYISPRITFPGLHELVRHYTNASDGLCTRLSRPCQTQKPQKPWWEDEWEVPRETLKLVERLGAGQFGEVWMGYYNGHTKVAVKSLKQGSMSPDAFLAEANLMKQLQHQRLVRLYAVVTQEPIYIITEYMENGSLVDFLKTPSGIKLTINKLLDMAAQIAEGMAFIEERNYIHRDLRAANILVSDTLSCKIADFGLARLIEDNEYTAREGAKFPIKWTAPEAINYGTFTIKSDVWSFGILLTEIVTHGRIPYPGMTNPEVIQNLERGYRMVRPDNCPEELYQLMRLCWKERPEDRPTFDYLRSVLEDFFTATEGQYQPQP

Sequence of Tyrosine-protein kinase JAK2 (O60674 whole entry): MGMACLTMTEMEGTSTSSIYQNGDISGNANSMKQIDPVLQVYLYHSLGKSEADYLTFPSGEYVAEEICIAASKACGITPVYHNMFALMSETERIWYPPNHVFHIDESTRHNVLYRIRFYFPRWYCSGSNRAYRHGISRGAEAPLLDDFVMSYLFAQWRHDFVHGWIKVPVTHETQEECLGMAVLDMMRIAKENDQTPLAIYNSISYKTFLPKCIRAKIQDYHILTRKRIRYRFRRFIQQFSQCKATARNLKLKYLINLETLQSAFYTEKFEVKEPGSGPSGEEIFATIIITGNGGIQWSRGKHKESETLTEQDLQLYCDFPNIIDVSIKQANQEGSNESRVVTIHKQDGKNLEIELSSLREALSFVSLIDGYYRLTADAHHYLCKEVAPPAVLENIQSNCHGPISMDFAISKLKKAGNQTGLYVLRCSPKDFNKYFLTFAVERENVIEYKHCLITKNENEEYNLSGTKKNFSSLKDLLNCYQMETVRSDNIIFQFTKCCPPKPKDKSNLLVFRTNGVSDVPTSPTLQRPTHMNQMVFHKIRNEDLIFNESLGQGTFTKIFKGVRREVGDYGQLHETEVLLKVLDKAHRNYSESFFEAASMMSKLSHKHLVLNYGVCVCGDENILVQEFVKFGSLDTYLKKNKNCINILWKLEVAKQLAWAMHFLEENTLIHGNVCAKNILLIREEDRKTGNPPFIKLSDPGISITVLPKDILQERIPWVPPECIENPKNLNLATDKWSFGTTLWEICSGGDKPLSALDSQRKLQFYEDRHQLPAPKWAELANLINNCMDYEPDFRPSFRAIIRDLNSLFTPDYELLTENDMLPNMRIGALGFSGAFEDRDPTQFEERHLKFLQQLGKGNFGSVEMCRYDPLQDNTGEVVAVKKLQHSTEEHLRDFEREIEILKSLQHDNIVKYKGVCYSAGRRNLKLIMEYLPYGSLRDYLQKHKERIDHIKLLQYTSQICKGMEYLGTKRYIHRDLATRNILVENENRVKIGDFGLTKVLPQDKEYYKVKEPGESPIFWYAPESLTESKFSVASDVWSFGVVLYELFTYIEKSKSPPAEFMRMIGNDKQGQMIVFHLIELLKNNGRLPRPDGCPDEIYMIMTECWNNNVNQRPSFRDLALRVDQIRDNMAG

Compound | IC50 [1] | IC50 [2] | IC50 [3] | IC50 [4] | Papp A→B [5] | IC50 [6] | IC50 [7] | IC50 [8] | IC50 [9] | IC50 [10] | IC50 [11] | EC50 [12] | IC50 [13]
Cc1cn2c(-c3cn[nH]c3)cnc2c(Nc2cc(Cc3ccccn3)ns2)n1 | > 500 nM | > 500 nM | < 13 nM | > 500 nM | 2.8 ×10⁻⁶ cm/s | 14 nM | > 500 nM | > 500 nM | 360 nM | > 500 nM | > 500 nM | 117 nM | 271 nM
CCN(CCO)Cc1cc(Nc2nc(C)cn3c(-c4cn[nH]c4)cnc23)sn1 | > 500 nM | > 500 nM | < 13 nM | > 500 nM | 2.1 ×10⁻⁶ cm/s | 5 nM | > 500 nM | > 500 nM | 13 nM | > 500 nM | > 500 nM | 24 nM | < 1 nM
Cc1cn2c(-c3cn[nH]c3)cnc2c(Nc2cc(C(NC(C)(C)C)c3ccccn3)ns2)n1 (single isomer, unassigned; (+)) | > 1000 nM | > 1000 nM | ≤ 13 nM | > 1000 nM | 2.4 ×10⁻⁶ cm/s | 5 nM | > 1000 nM | > 1000 nM | 7 nM | > 1000 nM | > 1000 nM | < 16 nM | 61 nM
